This passage reports IC50 results from US8017612B2, “Piperazine compound and use thereof as a HCV polymerase inhibitor” (priority 2006, dated 2011).

Structures are written as SMILES.

Assay [1] deals with T1, HCV polymerase (NS5B) type 1a (Hepatitis C virus genotype 1a, UniProt P26664).
T1 construct: made in house; host or cells: Escherichia coli (by the 'similar method' of the 1b enzyme)
Kind of assay: Assay of enzyme (HCV polymerase) inhibitory activity, type 1a enzyme. Format: biochemical, HCV type 1a (cloned from the blood of patients). Particulars: HCV polymerase inhibitory activity (IC50), 1a, type 1a enzyme 1.5 μg/ml, 25° C., 60 min. The method, boiled down: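 Reactions ran 60 min at 25° C in 20 mM Tris-HCl pH 7.5, 5 mM MgCl2, 50 mM NaCl, holding genotype 1a NS5B (1.5 μg/ml, Δ47 C-terminus, 6His), substrate RNA 5 μg/ml, UTP 2 μM with tritiated UTP and other NTPs 50 μM. IC50 derived from incorporated radiolabel in filter-trapped RNA relative to uninhibited reaction.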

Assay [2] concerns the target T2, HCV polymerase (NS5B) type 1b (Hepatitis C virus genotype 1b, UniProt P26663).
T2 construct: a region encoding NS5B (J Virol 1991 March, 65(3), 1105-13, 544 amino acids after deletion of 47 amino acids on the C-terminal); 6xHis (C); made in house; host or cells: Escherichia coli
Nature of the assay: Assay of enzyme (HCV polymerase) inhibitory activity, type 1b enzyme. Particulars: HCV polymerase inhibitory activity (IC50), 1b, type 1b enzyme 0.5 μg/ml, 25° C., 60 min. The assay is classed as biochemical, HCV BK strain (type 1b). In outline: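 IC50 derived from [3H]UTP incorporation into TCA-insoluble RNA, compared with and without test compound. Reaction (25 °C, 60 min, Tris pH 7.5, 5 mM MgCl2): E. coli-expressed 1b NS5B Δ47 with His tag at 0.5 μg/ml, 5 μg/ml run-off substrate RNA, ATP/GTP/CTP 50 μM, UTP 2 μM.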

As to `CCOC(=O)C(=O)N1CCN(S(=O)(=O)c2ccc(C(F)(F)F)cc2)[C@@H](C(=O)NCc2ccc(C(C)C)cc2)C1` [Example 290, [(R)-3-(4-isopropyl-benzylcarbamoyl)-4-(4-trifluoromethyl-benzenesulfonyl)-piperazin-1-yl]-oxo-acetic acid ethyl ester], the IC50 in assay [1] was above 1000 nM; in assay [2], 100 to 1000 nM.

Regarding `CC(=O)N1CCN(S(=O)(=O)c2ccc(C(C)C)cc2)[C@@H](C(=O)NCc2ccc(C(C)C)cc2C)C1` [Example 291, (R)-4-acetyl-1-(4-isopropyl-benzenesulfonyl)-piperazine-2-carboxylic acid 4-isopropyl-2-methyl-benzylamide], the IC50 in assay [1] and in assay [2] was below 100 nM each time.

Take `CC(=O)N1CCN(S(=O)(=O)c2ccc(C(C)C)cc2)[C@@H](C(=O)NCc2ccc(C(C)C)cc2F)C1` [Example 292, (R)-4-acetyl-1-(4-isopropyl-benzenesulfonyl)-piperazine-2-carboxylic acid 2-fluoro-4-isopropyl-benzylamide]: the IC50 was 100 to 1000 nM in assay [1] and below 100 nM in assay [2].

On to `CC(=O)N1CCN(S(=O)(=O)c2ccc(C(C)C)cc2)[C@@H](C(=O)NCc2ccc(C(C)(F)F)cc2)C1` [Example 293, (R)-4-acetyl-1-(4-isopropyl-benzenesulfonyl)-piperazine-2-carboxylic acid 4-(1,1-difluoro-ethyl)-benzylamide], for which the IC50 in assay [1] and in assay [2] was 100 to 1000 nM each time.

For `CCCc1ccc(CNC(=O)[C@H]2CN(C(C)=O)CCN2S(=O)(=O)c2ccc(C(C)C)cc2)cc1` [Example 294, (R)-4-acetyl-1-(4-isopropyl-benzenesulfonyl)-piperazine-2-carboxylic acid 4-propyl-benzylamide], the IC50 in assay [1] and in assay [2] was below 100 nM in each case.

For the compound `CCCc1ccc(S(=O)(=O)N2CCN(C(=O)Nc3ccncc3)C[C@@H]2C(=O)NCc2ccc(C(C)C)cc2)cc1` [Example 295, (R)-4-(4-propyl-benzenesulfonyl)-piperazine-1,3-dicarboxylic acid 3-(4-isopropyl-benzylamide) 1-pyridin-4-ylamide], the IC50 in assay [1] and in assay [2] was below 100 nM throughout.

Take `CCCc1ccc(S(=O)(=O)N2CCN(c3nc(C(=O)OCC)cs3)C[C@@H]2C(=O)NCc2ccc(C(C)C)cc2)cc1` [Example 296, 2-[(R)-3-(4-isopropyl-benzylcarbamoyl)-4-(4-propyl-benzenesulfonyl)-piperazin-1-yl]-thiazole-4-carboxylic acid ethyl ester]: the IC50 in assay [1] and in assay [2] was below 100 nM each time.

Take `CCCc1ccc(S(=O)(=O)N2CCN(c3nc(C)c(C(=O)OC)s3)C[C@@H]2C(=O)NCc2ccc(C(C)C)cc2)cc1` [Example 297, 2-[(R)-3-(4-isopropyl-benzylcarbamoyl)-4-(4-propyl-benzenesulfonyl)-piperazin-1-yl]-4-methyl-thiazole-5-carboxylic acid methyl ester]: the IC50 in assay [1] and in assay [2] was below 100 nM throughout.

With `CCCc1ccc(S(=O)(=O)N2CCN(c3nc(C(=O)O)cs3)C[C@@H]2C(=O)NCc2ccc(C(C)C)cc2)cc1` [Example 298, 2-[(R)-3-(4-isopropyl-benzylcarbamoyl)-4-(4-propyl-benzenesulfonyl)-piperazin-1-yl]-thiazole-4-carboxylic acid], the IC50 in assay [1] and in assay [2] was 100 to 1000 nM throughout.

With `CCCc1ccc(S(=O)(=O)N2CCN(c3nc(C)c(C(=O)O)s3)C[C@@H]2C(=O)NCc2ccc(C(C)C)cc2)cc1` [Example 299, 2-[(R)-3-(4-isopropyl-benzylcarbamoyl)-4-(4-propyl-benzenesulfonyl)-piperazin-1-yl]-4-methyl-thiazole-5-carboxylic acid], the IC50 in assay [1] and in assay [2] was below 100 nM in each case.

Turning to `CC(C)c1ccc(CNC(=O)[C@H]2CN(C(=O)Nc3ccncn3)CCN2S(=O)(=O)c2ccc(C(F)(F)F)cc2)cc1` [Example 300, (R)-4-(4-trifluoromethyl-benzenesulfonyl)-piperazine-1,3-dicarboxylic acid 3-(4-isopropyl-benzylamide) 1-pyrimidin-4-ylamide], the IC50 in assay [1] and in assay [2] was below 100 nM in each case.

As to `CC(C)c1ccc(CNC(=O)[C@H]2CN(C(=O)Nc3ccnc(C(=O)OC(C)(C)C)c3)CCN2S(=O)(=O)c2ccc(C(F)(F)F)cc2)cc1` [Example 301, 4-{[(R)-3-(4-isopropyl-benzylcarbamoyl)-4-(4-trifluoromethyl-benzenesulfonyl)-piperazine-1-carbonyl]-amino}-pyridine-2-carboxylic acid tert-butyl ester], the IC50 in assay [1] and in assay [2] was below 100 nM throughout.

For `COC(=O)c1cnc(N2CCN(S(=O)(=O)c3ccc(C(F)(F)F)cc3)[C@@H](C(=O)NCc3ccc(C(C)C)cc3)C2)s1` [Example 302, 2-[(R)-3-(4-isopropyl-benzylcarbamoyl)-4-(4-trifluoromethyl-benzenesulfonyl)-piperazin-1-yl]-thiazole-5-carboxylic acid methyl ester], the results for the IC50 in assay [1] and in assay [2] were 100 to 1000 nM and below 100 nM, respectively.

As for `COC(=O)c1ccc(N2CCN(S(=O)(=O)c3ccc(C(F)(F)F)cc3)[C@@H](C(=O)NCc3ccc(C(C)C)cc3)C2)nc1` [Example 303, 6-[(R)-3-(4-isopropyl-benzylcarbamoyl)-4-(4-trifluoromethyl-benzenesulfonyl)-piperazin-1-yl]-nicotinic acid methyl ester], the IC50 in assay [1] and in assay [2] was below 100 nM in each case.

As for `CC(C)c1ccc(CNC(=O)[C@H]2CN(CCc3ccncc3)CCN2S(=O)(=O)c2ccc(C(F)(F)F)cc2)cc1` [Example 304, (R)-4-(2-pyridin-4-yl-ethyl)-1-(4-trifluoromethyl-benzenesulfonyl)-piperazine-2-carboxylic acid 4-isopropyl-benzylamide], the IC50 in assay [1] and in assay [2] was 100 to 1000 nM in each case.

Turning to `CC(=O)N1CCN(S(=O)(=O)c2ccc(OC(F)(F)F)c(C(=O)O)c2)[C@@H](C(=O)NCc2ccc(C(C)C)cc2)C1` [Example 305, 5-[(R)-4-acetyl-2-(4-isopropyl-benzylcarbamoyl)-piperazine-1-sulfonyl]-2-trifluoromethoxy-benzoic acid], the values for the IC50 in assay [1] and in assay [2] were 100 to 1000 nM and below 100 nM, respectively.

Take `CC(=O)N1CCN(S(=O)(=O)c2ccc3c(c2)OC(F)(F)C(F)(F)O3)[C@@H](C(=O)NCc2ccc(C(C)C)cc2)C1` [Example 306, (R)-4-acetyl-1-(2,2,3,3-tetrafluoro-2,3-dihydro-benzo[1,4]dioxine-6-sulfonyl)-piperazine-2-carboxylic acid 4-isopropyl-benzylamide]: the IC50 in assay [1] and in assay [2] was 100 to 1000 nM each time.

As for `CC(=O)N1CCN(S(=O)(=O)c2ccc3c(c2)N(C)CCC3)[C@@H](C(=O)NCc2ccc(C(C)C)cc2)C1` [Example 307, (R)-4-acetyl-1-(1-methyl-1,2,3,4-tetrahydro-quinoline-7-sulfonyl)-piperazine-2-carboxylic acid 4-isopropyl-benzylamide], the IC50 was 100 to 1000 nM in assay [1] and below 100 nM in assay [2].

On to `CC(C)c1ccc(CNC(=O)[C@H]2CN(C(=O)C(N)=O)CCN2S(=O)(=O)c2ccc(C(F)(F)F)cc2)cc1` [Example 308, (R)-4-aminooxalyl-1-(4-trifluoromethyl-benzenesulfonyl)-piperazine-2-carboxylic acid 4-isopropyl-benzylamide], for which the IC50 in assay [1] and in assay [2] was above 1000 nM throughout.

Consider `CCOC(=O)Cc1nnn(CC(=O)N2CCN(S(=O)(=O)c3ccc(C(F)(F)F)cc3)[C@@H](C(=O)NCc3ccc(C(C)C)cc3)C2)n1` [Example 309, (2-{2-[(R)-3-(4-isopropyl-benzylcarbamoyl)-4-(4-trifluoromethyl-benzenesulfonyl)-piperazin-1-yl]-2-oxo-ethyl}-2H-tetrazol-5-yl)-acetic acid ethyl ester], for which the half-inhibitory concentration (IC50) in assay [1] and in assay [2] was below 100 nM in each case.

Regarding `CC(C)c1ccc(CNC(=O)[C@H]2CN(C(=O)Cn3nnc(CC(=O)O)n3)CCN2S(=O)(=O)c2ccc(C(F)(F)F)cc2)cc1` [Example 310, (2-{2-[(R)-3-(4-isopropyl-benzylcarbamoyl)-4-(4-trifluoromethyl-benzenesulfonyl)-piperazin-1-yl]-2-oxo-ethyl}-2H-tetrazol-5-yl)-acetic acid], the IC50 in assay [1] was 100 to 1000 nM; in assay [2] it was below 100 nM.

Regarding `CCOC(=O)Cc1nnnn1CC(=O)N1CCN(S(=O)(=O)c2ccc(C(F)(F)F)cc2)[C@@H](C(=O)NCc2ccc(C(C)C)cc2)C1` [Example 311, (1-{2-[(R)-3-(4-isopropyl-benzylcarbamoyl)-4-(4-trifluoromethyl-benzenesulfonyl)-piperazin-1-yl]-2-oxo-ethyl}-1H-tetrazol-5-yl)-acetic acid ethyl ester], the IC50 in assay [1] and in assay [2] was 100 to 1000 nM in each case.

Turning to `CC(C)c1ccc(CNC(=O)[C@H]2CN(C(=O)Cn3nnnc3CC(=O)O)CCN2S(=O)(=O)c2ccc(C(F)(F)F)cc2)cc1` [Example 312, (1-{2-[(R)-3-(4-isopropyl-benzylcarbamoyl)-4-(4-trifluoromethyl-benzenesulfonyl)-piperazin-1-yl]-2-oxo-ethyl}-1H-tetrazol-5-yl)-acetic acid], the IC50 in assay [1] is above 1000 nM; in assay [2], 100 to 1000 nM.

As usually defined, the IC50 is the concentration that inhibits the measured activity by half.
